Results taken from patent publication US20080221213A1, “Tablets Comprising a High Load of Strontium” (OSTEOLOGIX A/S SYMBION SCIENCE PARK, priority 2005, published 2008).

Assay: Single oral dose pharmacokinetic study in humans (healthy male volunteers), serum strontium by ICP-MS
Details: by inverse regression on the dose-AUC model; 95% CI [1.073, 1.115]

Q: For `O=C([O-])CC(=O)[O-].[Sr+2]` [strontium malonate], which “Bioequivalent dose to 2.0 g strontium ranelate (Protelos) in terms of AUC5 week” value is on record?
A: Its value is 1.09 g.
